From PubChem BioAssay (NCI) come the findings set out here.

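96-well plates; 48 h exposure; 5 concentrations. Endpoints by linear interpolation between flanking doses. Not reached: highest tested concentration assigned. Here, GI50 denotes the concentration required for 50% inhibition of growth. TGI: concentration producing complete growth inhibition.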

Test systems include HL-60(TB) leukemia; KM12 colon; M14 melanoma; T-47D breast; SR leukemia; SF-295 CNS; DU-145 prostate; UO-31 renal; NCI-H226 lung; CCRF-CEM leukemia.
Holding throughout (assay): NCI-60 cell line screen, 48 h

On to `Nc1nc2ccc(CNc3ccc(C(=O)NC(CC(=O)O)C(=O)O)cc3)cc2c(=O)[nH]1` (centres undefined), for which the GI50 in the assay on HL-60(TB) leukemia is 1.13 µM; with KM12 colon, 4.3 µM; in the assay on T-47D breast, more than 100 µM; in the assay with SR leukemia, 0.52 µM; with SF-295 CNS, 1 µM; with DU-145 prostate, 1.58 µM. Also, the GI50 in the assay with UO-31 renal is 9.74 µM; in the assay with NCI-H226 lung, more than 65.3 µM; in the assay with CCRF-CEM leukemia, 4.86 µM. In addition, the TGI in the assay on HL-60(TB) leukemia is more than 100 µM; in the assay on KM12 colon, more than 100 µM; in the assay on M14 melanoma, more than 100 µM; with T-47D breast it was more than 100 µM; in the assay with SR leukemia it was more than 100 µM; with SF-295 CNS, more than 28.7 µM. Also, the TGI in the assay on DU-145 prostate, in the assay on UO-31 renal, in the assay on NCI-H226 lung and in the assay on CCRF-CEM leukemia was more than 100 µM throughout.
Regarding `Nc1c(C(=O)Nc2cccc(Cl)c2)sc2nc3c(cc12)C(O)CCC3` (centres undefined), the GI50 was 0.234 µM in the assay on HL-60(TB) leukemia; 0.397 µM in the assay on KM12 colon; 0.367 µM in the assay with M14 melanoma; 0.463 µM with T-47D breast; 0.258 µM with SR leukemia; 0.314 µM with SF-295 CNS. Also, the GI50 is 0.388 µM in the assay on DU-145 prostate, 1.1 µM with UO-31 renal, 2.68 µM in the assay with NCI-H226 lung and 0.31 µM with CCRF-CEM leukemia. The TGI in the assay with HL-60(TB) leukemia was 0.821 µM; with KM12 colon, more than 49.9 µM; in the assay with M14 melanoma it was more than 49.7 µM; in the assay on T-47D breast, 53.2 µM; with SR leukemia it was 28.6 µM; in the assay on SF-295 CNS, 16.3 µM. Further, the TGI with DU-145 prostate is 16.3 µM; with UO-31 renal, 26.8 µM; with NCI-H226 lung, 38.1 µM; in the assay with CCRF-CEM leukemia it was 17.3 µM.
As for `COc1cccc2nc(Nc3cccc(NC(=O)c4ccc(N5CCN(C)CC5)c(C(F)(F)F)c4)c3)ccc12`, the GI50 with HL-60(TB) leukemia is 1.07 µM; in the assay with KM12 colon, 1.09 µM; in the assay on M14 melanoma it was 0.899 µM; in the assay on T-47D breast, 1 µM; with SR leukemia it was 1.13 µM; with SF-295 CNS, 0.967 µM. Also, the GI50 in the assay on DU-145 prostate is 1.81 µM; in the assay on UO-31 renal, 0.734 µM; with NCI-H226 lung, 2.26 µM; in the assay on CCRF-CEM leukemia, 1.4 µM. The TGI in the assay on HL-60(TB) leukemia turned out to be 2.35 µM; in the assay on KM12 colon, 2.56 µM; in the assay with M14 melanoma, 1.95 µM; with T-47D breast, 3.37 µM; in the assay on SR leukemia, 3.45 µM; in the assay with SF-295 CNS, 1.92 µM. For the same compound, the TGI worked out at 6.38 µM in the assay on DU-145 prostate, 1.49 µM in the assay on UO-31 renal, 8.61 µM in the assay on NCI-H226 lung and 50 µM in the assay with CCRF-CEM leukemia.
Regarding `Cc1[nH]c(C(=O)Nc2cccc(OC3CCNCC3)c2)c(Cl)c1Cl`, the GI50 in the assay with HL-60(TB) leukemia was 1.91 µM; in the assay on KM12 colon it was 1.93 µM; in the assay on M14 melanoma it was 1.8 µM; in the assay on T-47D breast, 1.96 µM; in the assay on SR leukemia it was 2.02 µM; in the assay on SF-295 CNS, 1.97 µM. For the same compound, the GI50 with DU-145 prostate is 1.89 µM; in the assay on UO-31 renal it was 1.52 µM; with NCI-H226 lung, 2.43 µM; in the assay with CCRF-CEM leukemia, 1.92 µM. For the same compound, the TGI amounted to 4.08 µM with HL-60(TB) leukemia; 3.73 µM in the assay with KM12 colon; 3.52 µM in the assay with M14 melanoma; 4.52 µM with T-47D breast; 5.09 µM in the assay on SR leukemia; 3.96 µM with SF-295 CNS. Moreover, the TGI was 3.52 µM in the assay with DU-145 prostate, 2.94 µM with UO-31 renal, 6.78 µM in the assay on NCI-H226 lung and 4.26 µM in the assay with CCRF-CEM leukemia.
Turning to `C=C(C(=O)c1ccccc1)C(NC(C)(C)C)c1ccccc1` (centres undefined), the GI50 in the assay with HL-60(TB) leukemia is 2.03 µM; with KM12 colon it was 2.22 µM; in the assay on M14 melanoma it was 1.87 µM; in the assay with T-47D breast, 2.44 µM; in the assay with SR leukemia it was 1.56 µM; in the assay with SF-295 CNS, 2.9 µM. Moreover, the GI50 in the assay on DU-145 prostate was 3.11 µM; in the assay on UO-31 renal it was 1.38 µM; with NCI-H226 lung, 1.63 µM; in the assay with CCRF-CEM leukemia, 0.629 µM. The TGI in the assay on HL-60(TB) leukemia was 7.82 µM; in the assay on KM12 colon, 6.36 µM; with M14 melanoma, 4.65 µM; in the assay with T-47D breast, 6.78 µM; in the assay with SR leukemia it was 8.41 µM; in the assay with SF-295 CNS, 10.8 µM. In addition, the TGI with DU-145 prostate was determined as 13.2 µM; in the assay on UO-31 renal it was 2.85 µM; in the assay with NCI-H226 lung, 4.56 µM; in the assay with CCRF-CEM leukemia, 43.7 µM.
Consider `COc1cc(-c2oc3c(OC)c(O)c(OC)c(O)c3c(=O)c2OC)cc(OC)c1OC`, for which the TGI in the assay on HL-60(TB) leukemia, with KM12 colon, in the assay on M14 melanoma, with T-47D breast, with SR leukemia and with SF-295 CNS was more than 100 µM each time. Besides, the TGI in the assay on DU-145 prostate, in the assay on UO-31 renal, in the assay with NCI-H226 lung and in the assay on CCRF-CEM leukemia was more than 100 µM in each case.
Take `CCN1CCN(Cc2ccc(Nc3ncc(F)c(-c4cc(F)c5nc(C)n(C(C)C)c5c4)n3)nc2)CC1`: the GI50 in the assay with HL-60(TB) leukemia was 2.82 µM; in the assay on KM12 colon, 0.56 µM; in the assay on M14 melanoma it was 3.6 µM; in the assay with T-47D breast, 19.3 µM; in the assay on SR leukemia, 0.101 µM; with SF-295 CNS, 0.0882 µM. For the same compound, the GI50 with DU-145 prostate was 5.75 µM; with UO-31 renal, 0.139 µM; in the assay on NCI-H226 lung, 0.109 µM; with CCRF-CEM leukemia, 1.14 µM. Moreover, the TGI with HL-60(TB) leukemia is 13.2 µM; in the assay on KM12 colon, 9.29 µM; in the assay with M14 melanoma, 11.5 µM; in the assay on T-47D breast it was 29 µM; in the assay on SR leukemia it was 6.92 µM; in the assay with SF-295 CNS, 9.08 µM. Besides, the TGI in the assay on DU-145 prostate worked out at 12.2 µM; in the assay with UO-31 renal, 7.26 µM; in the assay with NCI-H226 lung, 25.2 µM; in the assay on CCRF-CEM leukemia, 15 µM.
